Data published in ChEMBL document CHEMBL4041545, “Design, synthesis and biological activities of tetrandrine and fangchinoline derivatives as antitumer agents” (Bioorg Med Chem Lett, 2017).

Columns and labels:
HepG2 [1] = test: Antiproliferative activity against human HepG2 cells after 48 hrs by MTT assay; format: functional, cell-based; details: HepG2, 48 h
MCF7 [2] = test: Antiproliferative activity against human MCF7 cells after 48 hrs by MTT assay; format: functional, cell-based; details: MCF7, 48 h
HepG2 [3] = test: Induction of apoptosis in human HepG2 cells assessed as live cells at 0.5 uM after 48 hrs by Annexin-V FITC/propidium iodide staining based flow cytometry (reference value: 86.49%); format: functional
HepG2 [4] = test: Induction of apoptosis in human HepG2 cells assessed as early apoptotic cells at 0.5 uM after 48 hrs by Annexin-V FITC/propidium iodide staining based flow cytometry (reference value: 6.62%); format: functional
HepG2 [5] = test: Induction of apoptosis in human HepG2 cells assessed as late apoptotic cells at 0.5 uM after 48 hrs by Annexin-V FITC/propidium iodide staining based flow cytometry (reference value: 5.53%); format: functional
HepG2 [6] = test: Induction of apoptosis in human HepG2 cells assessed as necrotic cells at 0.5 uM after 48 hrs by Annexin-V FITC/propidium iodide staining based flow cytometry (reference value: 1.36%); format: functional
HepG2 [7] = test: Potency index, ratio of sunitinib IC50 to compound IC50 for human HepG2 cells; format: functional
MCF7 [8] = test: Potency index, ratio of sunitinib IC50 to compound IC50 for human MCF7 cells; format: functional

Row | IC50 (HepG2 [1]) | IC50 (MCF7 [2]) | SMILES | also measured
1 | 2.12 µM | 3.79 µM | COc1ccc2cc1Oc1ccc(cc1)C[C@H]1c3cc(c(OC)cc3CCN1C)Oc1c(OC(=O)c3ccc(Cl)cc3)c(OC)cc3c1[C@H](C2)N(C)CC3 | 
2 | 3.69 µM | 6.34 µM | COc1ccc2cc1Oc1ccc(cc1)C[C@H]1c3cc(c(OC)cc3CCN1C)Oc1c(OC(=O)c3ccccc3)c(OC)cc3c1[C@H](C2)N(C)CC3 | 
3 | 1.32 µM | 3.51 µM | COc1ccc2cc1Oc1ccc(cc1)C[C@H]1c3cc(c(OC)cc3CCN1C)Oc1c(OC(=O)c3ccccc3Cl)c(OC)cc3c1[C@H](C2)N(C)CC3 | 
4 | 10 µM | 14.6 µM | COc1ccc2cc1Oc1ccc(cc1)C[C@H]1c3cc(c(OC)cc3CC[N+]1(C)CC(=O)[O-])Oc1c(OC)c(OC)cc3c1[C@H](C2)[N+](C)(CC(=O)[O-])CC3 (stereo not given in full) | 
5 | 1.78 µM | 5.12 µM | COc1ccc2cc1Oc1ccc(cc1)C[C@H]1c3cc(c(OC)cc3CCN1C)Oc1c(OC(=O)c3ccccc3OC(C)=O)c(OC)cc3c1[C@H](C2)N(C)CC3 | 
6 | 4.92 µM | 7.98 µM | COc1ccc2cc1Oc1ccc(cc1)C[C@H]1c3cc(c(OC)cc3CCN1C)Oc1c(OC(C)C)c(OC)cc3c1[C@H](C2)N(C)CC3 | 
7 | 1.99 µM | 2.98 µM | COc1ccc2cc1Oc1ccc(cc1)C[C@H]1c3cc(c(OC)cc3CCN1C)Oc1c(OC(=O)c3cccc(Cl)c3)c(OC)cc3c1[C@H](C2)N(C)CC3 | 
8 | 2.95 µM | 2.57 µM | COc1ccc2cc1Oc1ccc(cc1)C[C@H]1c3cc(c(OC)cc3CCN1C)Oc1c(OC(=O)c3ccccc3[N+](=O)[O-])c(OC)cc3c1[C@H](C2)N(C)CC3 | 
9 | 4.12 µM | 7.13 µM | COc1ccc2cc1Oc1ccc(cc1)C[C@H]1c3cc(c(OC)cc3CCN1C)Oc1c(OC(=O)CCl)c(OC)cc3c1[C@H](C2)N(C)CC3 | 
10 | 2.11 µM | 2.99 µM | COc1ccc2cc1Oc1ccc(cc1)C[C@H]1c3cc(c(OC)cc3CCN1C)Oc1c(OC(=O)c3ccc([N+](=O)[O-])cc3)c(OC)cc3c1[C@H](C2)N(C)CC3 | 
11 | 0.55 µM | 3.45 µM | COc1ccc2cc1Oc1ccc(cc1)C[C@H]1c3cc(c(OC)cc3CCN1C)Oc1c(OCc3ccccc3)c(OC)cc3c1[C@H](C2)N(C)CC3 | Activity (HepG2 [3]): 55.6%; Activity (HepG2 [4]): 10.47%; Activity (HepG2 [5]): 28.16%; Activity (HepG2 [6]): 5.77%; Ratio IC50 (HepG2 [7]): 29.2; Ratio IC50 (MCF7 [8]): 7.37
12 | 3.59 µM | 6.12 µM | COc1ccc2cc1Oc1ccc(cc1)C[C@H]1c3cc(c(OC)cc3CCN1C)Oc1c(OC(=O)/C=C/c3ccccc3)c(OC)cc3c1[C@H](C2)N(C)CC3 | 

Further lines, the molecule ahead of its results:

Row | SMILES | IC50 (HepG2 [1]) | IC50 (MCF7 [2]) | also measured
13 | COc1ccc2cc1Oc1ccc(cc1)C[C@H]1c3cc(c(OC)cc3CC[N+]1(C)CC(=O)[O-])Oc1c(OC)c(OC)cc3c1[C@H](C2)N(C)CC3 (stereo not given in full) | 9.98 µM | 11.6 µM | 
14 | COc1ccc2cc1Oc1ccc(cc1)C[C@H]1c3cc(c(OC)cc3CCN1C)Oc1c(OC(=O)c3cccc([N+](=O)[O-])c3)c(OC)cc3c1[C@H](C2)N(C)CC3 | 1.69 µM | 1.99 µM | 
15 | CCOc1ccc(C(=O)Oc2c(OC)cc3c4c2Oc2cc5c(cc2OC)CCN(C)[C@H]5Cc2ccc(cc2)Oc2cc(ccc2OC)C[C@@H]4N(C)CC3)cc1 | 0.65 µM | 4.54 µM | 
16 | COc1ccc2cc1Oc1ccc(cc1)C[C@H]1c3cc(c(OC)cc3CCN1C)Oc1c(OC(C)=O)c(OC)cc3c1[C@H](C2)N(C)CC3 | 5.24 µM | 6.99 µM | 
17 | CCCCOc1c(OC)cc2c3c1Oc1cc4c(cc1OC)CCN(C)[C@H]4Cc1ccc(cc1)Oc1cc(ccc1OC)C[C@@H]3N(C)CC2 | 3.79 µM | 7.34 µM | 
18 | CCOC(=O)C(C)[N+]1(C)CCc2cc(OC)c3cc2[C@@H]1Cc1ccc(cc1)Oc1cc(ccc1OC)C[C@H]1c2c(cc(OC)c(OC)c2O3)CCN1C (stereo not given in full) | 13.1 µM | 10.1 µM | 
19 | COc1ccc2cc1Oc1ccc(cc1)C[C@H]1c3cc(c(OC)cc3CCN1C)Oc1c(OC(=O)c3cccnc3)c(OC)cc3c1[C@H](C2)N(C)CC3 | 1.98 µM | 4.17 µM | 
20 | CCC(Br)C(=O)Oc1c(OC)cc2c3c1Oc1cc4c(cc1OC)CCN(C)[C@H]4Cc1ccc(cc1)Oc1cc(ccc1OC)C[C@@H]3N(C)CC2 (stereo not given in full) | 3.88 µM | 7.02 µM | 
21 | CCOc1c(OC)cc2c3c1Oc1cc4c(cc1OC)CCN(C)[C@H]4Cc1ccc(cc1)Oc1cc(ccc1OC)C[C@@H]3N(C)CC2 | 5.52 µM | 8.55 µM | 
22 | COc1ccc2cc1Oc1ccc(cc1)C[C@H]1c3cc(c(OC)cc3CCN1C)Oc1c(OC(=O)c3cccnc3Cl)c(OC)cc3c1[C@H](C2)N(C)CC3 | 2.79 µM | 4.01 µM | 
23 | C/C=C/C=C/C(=O)Oc1c(OC)cc2c3c1Oc1cc4c(cc1OC)CCN(C)[C@H]4Cc1ccc(cc1)Oc1cc(ccc1OC)C[C@@H]3N(C)CC2 | 4 µM | 6.56 µM | 
24 | CCOC(=O)C(CC)[N+]1(C)CCc2cc(OC)c3cc2[C@@H]1Cc1ccc(cc1)Oc1cc(ccc1OC)C[C@H]1c2c(cc(OC)c(OC)c2O3)CCN1C (stereo not given in full) | 15.7 µM | 16.6 µM | 
25 | COc1ccc2cc1Oc1ccc(cc1)C[C@H]1c3cc(c(OC)cc3CC[N+]1(C)CCO)Oc1c(OC)c(OC)cc3c1[C@H](C2)[N+](C)(CCO)CC3 (stereo not given in full) | 9.67 µM | 9.32 µM | 
26 | COc1ccc2cc1Oc1ccc(cc1)C[C@H]1c3cc(c(OC)cc3CCN1C)Oc1c(OC)c(OC)cc3c1[C@H](C2)N(C)CC3 [FANCHININ] | 6.82 µM | 8.62 µM | 
27 | COc1ccc2cc1Oc1ccc(cc1)C[C@H]1c3cc(c(OC)cc3CCN1C)Oc1c(O)c(OC)cc3c1[C@H](C2)N(C)CC3 [FANGCHINOLINE] | 9.08 µM | 10.1 µM | 
